Values quoted from earlier work as cited in US7160560B2, “Skin-care composition” (L'Oreal S.A., priority 2003, dated 2007).

## CC1=N[C@H](C(=O)O)CCN1 [ectoin, (s)-1,4,5,6-tetrahydro-2-methyl-4-pyrimidinecarboxylic acid]
Human keratinocytes
  signaling cascade brought about by UVA-radiation: inhibits
Human dermal fibroblasts
  UVA radiation-induced formation of mitochondrial DNA mutations: inhibits
